Data reported in patent US20240115578A1, “DRUG COMPOSITION FOR TREATING PEDIATRIC CANCERS” (CHUGAI SEIYAKU KABUSHIKI KAISHA, priority 2021, published 2024).

Key:
[1] = test system: recurrent/refractory childhood cancers; settings: IMT with ALK fusion gene, ALCL, neuroblastoma, other malignant solid tumors; cited from earlier work
[2] = Intrinsic clearance, other HLM; assay type: in vitro ADME; settings: human, human liver microsomes; PBPK input; read-out: CLint, HLMother
Excerpt: (§1) The PBPK model was constructed by combining alectinib-specific physicochemical information (molecular weight, logP, pKa, etc.), and the in vitro and in vivo study results obtained so far, with the physiological information on the target population in the SimCYP (registered trademark) software (Certara, Sheffield, UK) (Table 2).

CYP2C8 = target: T1, CYP2C8 (Homo sapiens, UniProt P10632); experiment: Competitive CYP2C8 inhibition; assay type: biochemical; settings: PBPK input
T1 sequence (P10632 1-490): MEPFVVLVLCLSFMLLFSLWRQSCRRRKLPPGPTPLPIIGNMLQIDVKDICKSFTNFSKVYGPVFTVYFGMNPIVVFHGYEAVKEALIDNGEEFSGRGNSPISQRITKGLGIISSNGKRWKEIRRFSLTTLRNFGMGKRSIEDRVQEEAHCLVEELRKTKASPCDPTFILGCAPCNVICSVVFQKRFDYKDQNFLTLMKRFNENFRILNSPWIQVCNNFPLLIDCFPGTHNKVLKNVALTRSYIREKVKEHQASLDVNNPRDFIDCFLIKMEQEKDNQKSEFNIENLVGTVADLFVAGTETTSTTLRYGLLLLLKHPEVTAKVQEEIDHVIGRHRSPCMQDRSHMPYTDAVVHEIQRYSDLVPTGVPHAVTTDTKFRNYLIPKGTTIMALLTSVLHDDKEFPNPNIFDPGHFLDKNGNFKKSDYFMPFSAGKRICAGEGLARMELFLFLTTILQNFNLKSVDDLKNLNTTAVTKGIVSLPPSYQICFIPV
Excerpt: as §1

CYP3A4 [3] = target: T2, CYP3A4 (Homo sapiens, UniProt P08684); experiment: Intrinsic clearance by CYP3A4; assay type: in vitro ADME
Excerpt: For pediatric PK prediction, especially for children under the age of 2 years, the need to consider developmental changes in the expression of drug-metabolizing enzymes and the like, in addition to the changes in body size associated with growth, has been reported (C Wagner, P Zhao, Y Pan, V Hsu, J Grillo, S M Huang, V Sinha. Application of Physiologically Based Pharmacokinetic (PBPK) Modeling to Support Dose Selection: Report of an FDA Public Workshop on PBPK. CPT Pharmacometrics Syst Pharmacol. 2015 April; 4(4): 226-30).
as §1
To predict pediatric PK, the physiological information on Japanese adults was replaced with that on Japanese children. […] The inter-individual variability in blood concentration on this simulation was calculated based on Japanese demographic data (Japanese pediatric demographic data source from Japanese Ministry of Health, Labour, and Welfare. Available from: […]

[4] = Physicochemical input parameters of alectinib for PBPK model
Excerpt: as §1

CYP3A4 [5] = experiment: CYP3A4 induction; assay type: in vitro ADME; settings: PBPK input
Excerpt: as §1

[6] = Absorption parameters fitted to clinical PK profiles in Japanese adult patients (JP28927); assay type: in vivo
Excerpt: It was then optimized using clinical trial results in Japanese adults as parameters related to the absorption process were incorporated into the model.

CYP3A4 [7] = target: T2, CYP3A4; experiment: Mechanism-based CYP3A4 inhibition; assay type: biochemical; settings: PBPK input; read-out: Mechanism-based inhibitor CYP3A4 inhibition Ki
Excerpt: as §1

[8] = Vss after intravenous administration in healthy subjects (Morcos et al.); settings: human, in vivo, 50 μg, 475 L normalized with 74.8 kg, read-out: Actual Vss
[9] = Blood-to-plasma ratio and free fractions (PBPK input); assay type: in vitro ADME
Excerpt: as §1

CYP2J2 = experiment: Intrinsic clearance assigned to CYP2J2; assay type: in vitro ADME; settings: CYP2J2 arbitrarily assigned, true enzyme not known
Excerpt: as §1

[10] = fitted, multiple p.o. with standard meal, 150 mg capsule, Japanese adult patients

T2 sequence (P08684 whole entry): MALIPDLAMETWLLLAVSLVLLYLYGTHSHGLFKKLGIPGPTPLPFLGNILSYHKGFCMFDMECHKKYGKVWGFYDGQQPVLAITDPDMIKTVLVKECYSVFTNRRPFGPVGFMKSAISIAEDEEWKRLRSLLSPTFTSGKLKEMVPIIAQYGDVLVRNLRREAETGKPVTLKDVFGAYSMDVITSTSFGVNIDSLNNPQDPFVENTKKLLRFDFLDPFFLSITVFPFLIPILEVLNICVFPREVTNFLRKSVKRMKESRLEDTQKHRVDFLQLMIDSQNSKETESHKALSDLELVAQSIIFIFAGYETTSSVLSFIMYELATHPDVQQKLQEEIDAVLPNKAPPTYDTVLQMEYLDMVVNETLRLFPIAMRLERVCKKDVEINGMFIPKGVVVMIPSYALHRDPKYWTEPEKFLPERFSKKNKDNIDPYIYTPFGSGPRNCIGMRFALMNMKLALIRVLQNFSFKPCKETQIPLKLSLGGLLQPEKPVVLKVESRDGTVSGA

microsomal CLint [2] | Ki (CYP2C8) | Contribution of CYP3A4 to hepatic metabolic clearance (CYP3A4 [3]) | logP [4] | pKa 1 ([4]; monoprotic base) | CYP3A4 induction Indslope (CYP3A4 [5]) | QGUT ([6]; first-order absorption model (assumed)) | Fa [6, 10] | Lag time [6, 10] | ka [6, 10] | Ki (CYP3A4 [7]) | Vd [8] | fuGut [9] | Structure (SMILES) | Clinical efficacy in childhood cancers [1] | CLint, CYP3A4 (CYP3A4 [3]; PBPK input) | CLint, CYP2J2 (CYP2J2)
 |  |  |  |  |  |  |  |  |  |  |  |  | C[C@@H](Oc1cc(-c2cnn(C3CCNCC3)c2)cnc1N)c1c(Cl)ccc(F)c1Cl [crizotinib] | has clinical efficacy in these childhood cancers |  | 
1710 µL/min/mg | 0.147 µM | about 40% | 1.96 | 7.05 | 3.52 µM⁻¹ | 8.49 L/h | 0.48 | 2.92 h | 0.22 h⁻¹ | 8.29 µM | 6.35 L/kg | 0.01 | CCc1cc2c(cc1N1CCC(N3CCOCC3)CC1)C(C)(C)c1[nH]c3cc(C#N)ccc3c1C2=O [alectinib, 9-ethyl-6,6-dimethyl-8-(4-morpholin-4-yl-piperidin-1-yl)-11-oxo-6,11-dihydro-5H-benzo[b]carbazole-3-carbonitrile] |  | 9.98 μL/min/pmol of μL/min/pmol of isoform | 285 μL/min/pmol of μL/min/pmol of isoform
